In patent publication US7056940B2, “Insecticidal 3-(2,6-disubstituted phenyl)-5-[5-arylthien-2-yl]-1,2,4-triazoles” (Dow AgroSciences LLC, priority 2001, dated 2006):

Legend:
Format in all cases: in vivo
[1] = tested on: Sweetpotato Whitefly (Bemisia tabacia); experiment: Insecticidal test for sweetpotato whitefly, spray on cotton plants; set-up: key: A: 90–100; B: 80–89; C: 70–79; D: 60–69; E: 50–59; F: less than 50; G: Inactive; conditions: 200 ppm spray, 13 days, large nymphs
How it was run: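 Five-week cotton plants trimmed to two leaves carried 2 days of whitefly oviposition, then adults were removed. Leaves were sprayed top and bottom with 200 ppm compound in water with 0.05% Tween 20 (acetone:ethanol co-solvent), four replicates. After 13 days at 28° C/60% RH, 3rd–4th instar nymphs were counted; percent control versus solvent-only sprayed plants.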

[2] = tested on: Cotton Aphid (Aphis gossypii); experiment: Insecticidal test for cotton aphid, spray on infested squash cotyledons; conditions: 50 ppm spray, 3 days
How it was run: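 Squash cotyledons were infested with all aphid life stages 16–20 h beforehand, then sprayed on both sides to runoff with 50 ppm compound (acetone:ethanol, 0.05% Tween 20). After 3 days at 26 °C and 40% RH, aphids were counted under a microscope, and percent control is population reduction versus untreated.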

[3] = tested on: Cabbage Looper (Trichoplusia ni); experiment: Insecticidal test for cabbage looper, treated cabbage leaf disc; set-up: key: A: 90–100; B: 80–89; C: 70–79; D: 60–69; E: 50–59; F: less than 50; G: Inactive; conditions: cabbage leaf-dip, 2nd instar larvae, 5 days
[4] = tested on: Two-spotted Spider Mite (Tetranychus urticae); experiment: Insecticidal test for two-spotted spider mite, ovicide method; set-up: key: A: 90–100; B: 80–89; C: 70–79; D: 60–69; E: 50–59; F: less than 50; G: Inactive; conditions: cotton leaf discs, 6 days
How it was run: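 Cotton leaf discs (eight, 2.2 cm each) received ten adult female two-spotted spider mites, which laid eggs for 24 hours before being taken off. The discs were then set on an agar substrate and kept at 24° C. and 90% RH for 6 days to assess ovicidal control.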

[5] = tested on: Tobacco Budworm (Heliothis virescens); experiment: Insecticidal test for tobacco budworm, treated cotton cotyledon leaf disc; set-up: key: A: 90–100; B: 80–89; C: 70–79; D: 60–69; E: 50–59; F: less than 50; G: Inactive; conditions: cotton cotyledon leaf-dip, 2nd instar larvae, 5 days
[6] = tested on: Beet Armyworm (Spodoptera exigua); experiment: Insecticidal test for beet armyworm, treated lepidopteran diet; set-up: key: A: 90–100; B: 80–89; C: 70–79; D: 60–69; E: 50–59; F: less than 50; G: Inactive; conditions: on diet surface, second-instar larvae, 5 days
How it was run: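 Test compound formulated at 400 ppm in 2:1 acetone:tap water; 250 μL applied onto surface of modified Shorey lepidopteran diet, five cups per compound (one cup = one replicate). After solvent air-dried, one second-instar larva placed on treated diet per cup.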

SMILES | WF: activity at 200 ppm against whitefly (% control rating) [1] | CA: activity at 50 ppm against cotton aphid (% control rating) [2] | CL: activity at 400 ppm against cabbage looper (% control rating) [3] | SM: activity against two-spotted spider mite (% control rating) [4] | TBW: activity at 400 ppm against tobacco budworm (% control rating) [5] | BAW: activity at 400 ppm against beet armyworm (% control rating) [6]
Cc1c(-c2nc(-c3c(F)cccc3Cl)nn2C)csc1-c1ccc(OC(F)(F)C(F)Cl)cc1 (stereo not drawn) | A (90–100) | B (80–89) | A (90–100) | A (90–100) | A (90–100) | A (90–100)
Cc1c(-c2nc(-c3c(F)cccc3Cl)nn2C)csc1-c1ccc(OC(F)(F)CF)cc1 | A (90–100) | A (90–100) | F (less than 50) | G | G | A (90–100)
Cc1c(-c2nc(-c3c(F)cccc3Cl)nn2C)csc1-c1ccc(OC(F)(F)C(Cl)Cl)cc1 | A (90–100) | B (80–89) | A (90–100) | A (90–100) | A (90–100) | A (90–100)
Cc1c(-c2nc(-c3c(F)cccc3Cl)nn2C)csc1-c1ccc(OC(C)C)cc1 | G | A (90–100) | G | G | F (less than 50) | G
CC(C)=COc1ccc(-c2scc(-c3nc(-c4c(F)cccc4Cl)nn3C)c2C)cc1 | A (90–100) | A (90–100) | A (90–100) | A (90–100) | F (less than 50) | A (90–100)
COCCOc1ccc(-c2scc(-c3nc(-c4c(F)cccc4Cl)nn3C)c2C)cc1 | F (less than 50) | C (70–79) | B (80–89) | D (60–69) | G | B (80–89)
Cc1c(-c2nc(-c3c(F)cccc3Cl)nn2C)csc1-c1cccc(C(F)(F)F)c1F | E (50–59) | A (90–100) | A (90–100) | F (less than 50) | G | G
Cc1c(-c2nc(-c3c(F)cccc3Cl)nn2C)csc1-c1ccc(Cl)cc1F | G | A (90–100) | A (90–100) | A (90–100) | F (less than 50) | G
Cc1c(-c2nc(-c3c(F)cccc3Cl)nn2C)csc1-c1ccc(Cl)c(F)c1 | G | A (90–100) | A (90–100) | A (90–100) | G | F (less than 50)
Cc1c(-c2nc(-c3c(F)cccc3Cl)nn2C)csc1-c1ccc(F)cc1 | F (less than 50) | B (80–89) | D (60–69) | B (80–89) | F (less than 50) | G
Cn1nc(-c2c(F)cccc2Cl)nc1-c1csc(-c2ccc(C(F)(F)F)cc2F)c1 | F (less than 50) | C (70–79) | A (90–100) | C (70–79) | D (60–69) | A (90–100)
Cc1c(-c2ccc(OC(F)(F)C(F)Br)cc2)csc1-c1nc(-c2c(F)cccc2Cl)nn1C (stereo not drawn) | A (90–100) | A (90–100) | A (90–100) | G | B (80–89) | A (90–100)
Cc1c(-c2ccc(OC(F)(F)C(F)Cl)cc2)csc1-c1nc(-c2c(F)cccc2Cl)nn1C (stereo not drawn) | A (90–100) | B (80–89) | A (90–100) | C (70–79) | B (80–89) | A (90–100)
Cc1c(-c2ccc(OC(F)(F)C(F)C(F)(F)F)cc2)csc1-c1nc(-c2c(F)cccc2Cl)nn1C (stereo not drawn) | A (90–100) | D (60–69) | A (90–100) | A (90–100) | A (90–100) | A (90–100)
Cc1c(-c2nc(-c3c(F)cccc3Cl)nn2C)sc(Br)c1-c1ccc(OC(F)(F)C(F)Br)cc1 (stereo not drawn) | F (less than 50) | B (80–89) | A (90–100) | G | F (less than 50) | A (90–100)
Cc1c(-c2nc(-c3c(F)cccc3Cl)nn2C)csc1-c1ccc(OC(F)(F)C(F)C(F)(F)F)cc1 (stereo not drawn) [drawing 216] | A (90–100) | D (60–69) | A (90–100) | B (80–89) | A (90–100) | A (90–100)
Cc1c(-c2nc(-c3c(F)cccc3Cl)nn2C)csc1-c1ccc(F)cc1F [drawing 224] | G | A (90–100) | A (90–100) | G | D (60–69) | G
